Source: ChEMBL document CHEMBL1201862, “PubChem BioAssay data set” (2004)
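Five concentrations, 48 hours, 96-well plates. GI50 is the concentration that inhibits growth by half.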 The source made the active and inactive calls. Cut-off read from the data, not from the text of the source: active = GI50 up to about 1.1 µM and inactive = higher.

How the values were obtained:
Experiment in all cases: inhibition of tumour cell growth, NCI panel, 48 h
IGROV-1 = system: IGROV-1
HCC 2998 = system: HCC 2998
SNB-19 = system: SNB-19
M14 = system: M14
MDA-N = system: MDA-N
NCI-H226 = system: NCI-H226
OVCAR-8 = system: OVCAR-8
ACHN = system: ACHN
SK-MEL-5 = system: SK-MEL-5
Hs-578T = system: Hs-578T
SK-MEL-28 = system: SK-MEL-28
SK-OV-3 = system: SK-OV-3
MOLT-4 = system: MOLT-4
OVCAR-3 = system: OVCAR-3
CAKI-1 = system: CAKI-1
UACC-62 = system: UACC-62
U-251 = system: U-251
HOP-62 = system: HOP-62
T47D = system: T47D
DU-145 = system: DU-145
SR = system: SR
SK-MEL-2 = system: SK-MEL-2
MDA-MB-231 = system: MDA-MB-231
Malme-3M = system: Malme-3M
SN12C = system: SN12C
UO-31 = system: UO-31
HL-60 = system: HL-60
NCI/ADR-RES = system: NCI/ADR-RES
A549 = system: A549
786-0 = system: 786-0
NCI-H522 = system: NCI-H522
CCRF-CEM = system: CCRF-CEM
SF-539 = system: SF-539
NCI-H460 = system: NCI-H460
HCT-15 = system: HCT-15
SW-620 = system: SW-620
K562 = system: K562
OVCAR-5 = system: OVCAR-5
BT-549 = system: BT-549
HT-29 = system: HT-29
SF-268 = system: SF-268
UACC-257 = system: UACC-257
MDA-MB-435 = system: MDA-MB-435
PC-3 = system: PC-3
COLO 205 = system: COLO 205
KM12 = system: KM12
A498 = system: A498
NCI-H23 = system: NCI-H23
TK-10 = system: TK-10
SNB-75 = system: SNB-75
SF-295 = system: SF-295
MCF7 = system: MCF7
HCT-116 = system: HCT-116
EKVX = system: EKVX
RPMI-8226 = system: RPMI-8226
HOP-92 = system: HOP-92
LOX IMVI = system: LOX IMVI
OVCAR-4 = system: OVCAR-4
RXF 393 = system: RXF 393

CN(C)CCOc1ccc([N+](=O)[O-])c2cccnc12
GI50 (IGROV-1): > 100 µM (inactive)
GI50 (HCC 2998): > 100 µM (inactive)
GI50 (SNB-19): > 100 µM (inactive)
GI50 (M14): > 100 µM (inactive)
GI50 (MDA-N): 79.1 µM (inactive)
GI50 (NCI-H226): > 100 µM (inactive)
GI50 (OVCAR-8): > 100 µM (inactive)
GI50 (ACHN): > 100 µM (inactive)
GI50 (SK-MEL-5): > 100 µM (inactive)
GI50 (Hs-578T): > 100 µM (inactive)
GI50 (SK-MEL-28): > 100 µM (inactive)
GI50 (SK-OV-3): > 100 µM (inactive)
GI50 (MOLT-4): 60.8 µM (inactive)
GI50 (OVCAR-3): > 100 µM (inactive)
GI50 (CAKI-1): > 100 µM (inactive)
GI50 (UACC-62): > 100 µM (inactive)
GI50 (U-251): > 100 µM (inactive)
GI50 (HOP-62): > 100 µM (inactive)
GI50 (T47D): > 100 µM (inactive)
GI50 (DU-145): > 100 µM (inactive)
GI50 (SR): > 100 µM (inactive)
GI50 (SK-MEL-2): > 100 µM (inactive)
GI50 (MDA-MB-231): 30.2 µM (inactive)
GI50 (Malme-3M): > 100 µM (inactive)
GI50 (SN12C): 60.4 µM (inactive)
GI50 (UO-31): > 100 µM (inactive)
GI50 (HL-60): > 100 µM (inactive)
GI50 (NCI/ADR-RES): > 100 µM (inactive)
GI50 (A549): > 100 µM (inactive)
GI50 (786-0): > 100 µM (inactive)
GI50 (NCI-H522): 61.9 µM (inactive)
GI50 (CCRF-CEM): > 100 µM (inactive)
GI50 (SF-539): > 100 µM (inactive)
GI50 (NCI-H460): > 100 µM (inactive)
GI50 (HCT-15): > 100 µM
GI50 (SW-620): 78.7 µM (inactive)
GI50 (K562): 97.3 µM (inactive)
GI50 (OVCAR-5): > 100 µM (inactive)
GI50 (BT-549): > 100 µM (inactive)
GI50 (HT-29): 39.4 µM (inactive)
GI50 (SF-268): > 100 µM (inactive)
GI50 (UACC-257): 86.9 µM (inactive)
GI50 (MDA-MB-435): > 100 µM (inactive)
GI50 (PC-3): > 100 µM (inactive)
GI50 (COLO 205): 43 µM (inactive)
GI50 (KM12): > 100 µM (inactive)
GI50 (A498): > 100 µM (inactive)
GI50 (NCI-H23): > 100 µM (inactive)
GI50 (TK-10): > 100 µM (inactive)
GI50 (SNB-75): 40.8 µM (inactive)
GI50 (SF-295): > 100 µM (inactive)
GI50 (MCF7): > 100 µM (inactive)
GI50 (HCT-116): 35.6 µM (inactive)

c1ccc2[nH]c(C3CCCCO3)nc2c1 (stereo not given)
GI50 (IGROV-1): > 100 µM (inactive)
GI50 (HCC 2998): > 100 µM (inactive)
GI50 (SNB-19): > 100 µM (inactive)
GI50 (M14): > 100 µM (inactive)
GI50 (MDA-N): > 100 µM (inactive)
GI50 (EKVX): > 100 µM (inactive)
GI50 (NCI-H226): 6.41 µM (inactive)
GI50 (OVCAR-8): > 100 µM (inactive)
GI50 (ACHN): > 100 µM (inactive)
GI50 (SK-MEL-5): > 100 µM (inactive)
GI50 (Hs-578T): > 100 µM (inactive)
GI50 (SK-MEL-28): > 100 µM (inactive)
GI50 (SK-OV-3): > 100 µM (inactive)
GI50 (MOLT-4): > 100 µM (inactive)
GI50 (OVCAR-3): > 100 µM (inactive)
GI50 (CAKI-1): > 100 µM (inactive)
GI50 (UACC-62): > 100 µM (inactive)
GI50 (U-251): > 100 µM (inactive)
GI50 (RPMI-8226): > 100 µM (inactive)
GI50 (HOP-62): > 100 µM (inactive)
GI50 (T47D): > 100 µM (inactive)
GI50 (DU-145): > 100 µM (inactive)
GI50 (SR): > 100 µM (inactive)
GI50 (SK-MEL-2): > 100 µM (inactive)
GI50 (MDA-MB-231): > 100 µM (inactive)
GI50 (Malme-3M): > 100 µM (inactive)
GI50 (SN12C): > 100 µM (inactive)
GI50 (UO-31): > 100 µM (inactive)
GI50 (HOP-92): > 100 µM (inactive)
GI50 (HL-60): > 100 µM (inactive)
GI50 (NCI/ADR-RES): > 100 µM (inactive)
GI50 (A549): > 100 µM (inactive)
GI50 (786-0): > 100 µM (inactive)
GI50 (NCI-H522): > 100 µM (inactive)
GI50 (CCRF-CEM): > 100 µM (inactive)
GI50 (SF-539): > 100 µM (inactive)
GI50 (HCT-15): > 100 µM
GI50 (SW-620): > 100 µM (inactive)
GI50 (LOX IMVI): > 100 µM (inactive)
GI50 (K562): > 100 µM (inactive)
GI50 (OVCAR-5): > 100 µM (inactive)
GI50 (BT-549): > 100 µM (inactive)
GI50 (HT-29): > 100 µM (inactive)
GI50 (SF-268): > 100 µM (inactive)
GI50 (UACC-257): > 100 µM (inactive)
GI50 (MDA-MB-435): > 100 µM (inactive)
GI50 (PC-3): > 100 µM (inactive)
GI50 (COLO 205): > 100 µM (inactive)
GI50 (KM12): 50.4 µM (inactive)
GI50 (OVCAR-4): > 100 µM (inactive)
GI50 (NCI-H23): > 100 µM (inactive)
GI50 (TK-10): > 100 µM (inactive)
GI50 (SNB-75): > 100 µM (inactive)
GI50 (RXF 393): > 100 µM (inactive)
GI50 (SF-295): > 100 µM (inactive)
GI50 (MCF7): > 100 µM (inactive)
GI50 (HCT-116): > 100 µM (inactive)
